Read-outs that look alike come from different tables or passages of the source.
Legend:
[1] = test system: Wnt/beta-catenin pathway; experiment: Wnt/beta-catenin TOPFlash dual luciferase reporter assay, ES-D3; assay type: cell-based, mouse; settings: 48 and 72 h, vs control and 50 ng/ml Wnt3a
Description: (§1) The Wnt/beta-catenin reporter assay was performed with the M50 Super 8× TOPFlash and M51 Super 8× FOPFlash vector containing the firefly luciferase gene under the control of TCF/LEF binding sites (M50 Super 8x TOPFlash) or mutated bindings sites (M51 Super 8× FOPFlash). 12,500 cells were seeded overnight on gelatine-coated 96-well plates in LIF-containing ES cell medium. On the next day the cells were transfected using Lipofectamine (Life Technologies) with one of the aforementioned vectors plus pGL4.75 [hRluc/CMV] (Promega) encoding the renilla luciferase reporter gene hRluc as a transfection control. […] The Dual-Luciferase® reporter assay system (Promega) was employed 48 and 72 h after medium change to follow the luminescence reaction using a GloMax®-multi detection system (Promega).
(§2) To assess the activation of the Wnt/beta-catenin signaling pathway by GSK3i, a dual luciferase reporter assay was used (Figure 2A/B). Mouse ES cells were transfected with the M50 TOPflash firefly luciferase vector, comprising seven TCF/LEF binding sites or as a negative control with the M51 FOPflash vector harboring mutated binding sites. To normalize the transfection efficiency, a hRluc/CMV vector with a constitutive expression of the renilla luciferase was used. Mouse ES cells of both lines were incubated with GSK3 inhibitors with concentrations close to the IC50 values calculated for the ES-D3 cell line. Dual luciferase luminescence was measured 48 and 72 h after cultivation with one of the inhibitors.

[2] = test system: ES-CCE cells; experiment: Cell viability assay (MTT), ES-CCE; assay type: cell-based, mouse; settings: BIO 0.1-1 μM, others 1-10 μM, three days
Description: (§3) The medium was changed daily and the cells were passaged 2–3 times per week. […] A randomized control was performed with basal medium without growth factors and/or small molecules. Physiological activation of the Wnt/beta-catenin-pathway was tested in medium supplemented with 50 ng/ml Wnt3a.
(§4) The viability of the mouse ES cells was determined after exposure to different concentrations of GSK3 inhibitors for three days using the MTT assay. The decrease of MTT activity is a reliable metabolism-based test for quantifying cell viability; this decrease correlates with the loss of cell viability. 2,000 cells were seeded overnight on gelatine-coated 96-well plates in LIF-containing ES cell medium. […] Basal medium without GSK3 inhibitors or DMSO was used as control. All tested conditions were analyzed in triplicates.

[3] = test system: Oct3/4; experiment: Immunofluorescence staining of Oct3/4 in ES-D3 cells; assay type: cell-based, mouse; settings: three day treatment
Description: (§5) Immunofluorescence was performed according to standard procedures. ES cells were treated on 6-well plates with different GSK3 inhibitors and after 48 h 100,000 cells were re-seeded in each cavity of Matrigel-coated glass slides (Zellkontakt, Nörten-Hardenberg, Germany). After 24 h in medium the cells were fixed in 4% (w/v) paraformaldehyde for 45 min at 4°C. Subsequently, the cells were blocked for 20 min in PBS plus 0.2% Triton X-100, 6% BSA, and 1 mg/ml NaBH4. Primary and secondary antibodies were diluted in PBS with 0.1% Triton X-100 and 0.1% BSA. Primary antibodies were incubated on the slides for 2.5 h at room temperature (RT) or overnight at 4°C. Secondary antibodies were incubated on the slides for 1 h at RT. The following primary antibodies were used: anti-Oct3/4 (sc-5279, Santa Cruz Biotechnology, Heidelberg, Germany) and anti-Brachyury (AF2085, R&D Systems, Minneapolis, MN, USA). Secondary antibodies were obtained from Dianova (Hamburg, Germany). Finally, the slides were mounted with immunoselect antifading mounting medium containing DAPI (Dianova) to counterstain the nuclei. The stained cells were examined using an Olympus IX81 inverted microscope (Olympus, Hamburg, Germany).

[4] = test system: ES-D3 cells; experiment: Cell viability assay (MTT), ES-D3; assay type: cell-based, mouse; settings: for viability reduced by: three days; for IC50: ES-D3 cells, three day treatment, medium devoid of LIF, reduced serum, read-out: IC50 (half maximal inhibitory concentration, cell viability)
Description: as §3, §4

[5] = test system: T gene; experiment: qPCR gene expression of T in ES-D3 cells; assay type: cell-based, mouse; settings: six day treatment, vs undifferentiated or randomly differentiated cells
Description: Total RNA was isolated from the cells using the RNeasy Kit (Qiagen, Hilden, Germany). Briefly, the cells were lysed in Qiazol (Qiagen), the hydrophilic phase was loaded onto RNA spin columns, and RNA was then prepared as instructed. cDNA synthesis was performed with random hexamer primers and 2 μg of the isolated total RNA following the manufacturer’s instructions. 10–20 ng of cDNA was then loaded in each well of a 384-well plate and specific primers were mixed with the GoTaq® PCR master mix according to the manufacturers’ instructions. Primer sequences were (5’-3’): T fw: […], rev: […], Nanog fw: […], rev: […], and Pou5f1 fw: […], rev: […]. Each qPCR amplification was performed in triplicates and the gathered data were normalized with qBasePlus (Biogazelle, Zwijnaarde, Belgium) against the housekeeping genes G6pdx, Tbp, and Tuba1a[10].

[6] = test system: Wnt/beta-catenin pathway; experiment: Wnt/beta-catenin TOPFlash dual luciferase reporter assay, ES-CCE; assay type: cell-based, mouse; settings: 48 and 72 h, vs random controls and 50 ng/ml Wnt3a
Description: as §1, §2

[7] = test system: Brachyury; experiment: Immunofluorescence staining of Brachyury in ES-D3 cells; assay type: cell-based, mouse; settings: for saturation of the concentration-response curve, Brachyury-positive cells: 0-10 μM CHIR-99021 or 0-2.5 μM CHIR-98014; for EC50: read-out: EC50 (Brachyury-positive cells)
Description: as §5, with “The following primary antibodies were used: anti-Oct3/4 (sc-5279, Santa Cruz Biotechnology, Heidelberg, Germany) and anti-Brachyury (AF2085, R&D Systems, Minneapolis, MN, USA).” left out

[8] = test system: GSK3; settings: cell-free system; cited from earlier work
[9] = ES-D3, 5 μM, three day treatment

| Compound | toxicity (in words) [2] | viability reduced by ([4]; ES-D3, 1 μM) [%] | IC50 [4] [nM] | activation of the Wnt/beta-catenin pathway (luminescence signal) ([1]; ES-D3, 5 μM) | viability reduced by ([4]; ES-D3, 2.5 μM) [%] | viability reduced by ([4]; ES-D3, 5 μM) [%] | viability reduced by ([4]; ES-D3, 7.5 μM) [%] | viability reduced by ([4]; ES-D3, 10 μM) [%] | IC50 ([4]; Mus musculus, 72 h) [nM] | T gene expression induction ([5]; ES-D3, 5 μM) | activation of the Wnt/beta-catenin pathway (luminescence signal) ([6]; 5 μM) | saturation of the concentration-response curve, Brachyury-positive cells ([7]; ES-D3, three day treatment) [%] | other results |
| --- | --- | --- | --- | --- | --- | --- | --- | --- | --- | --- | --- | --- | --- |
| O=C1Nc2cc(Br)ccc2/C1=C1/Nc2ccccc2/C1=N\O [BIO] | strongly cytotoxic | 83.5 | 480 |  |  |  |  |  |  |  |  |  | activation of the Wnt/beta-catenin pathway (luminescence signal) ([1]; ES-D3, 0.5 μM): did not result in a robust activation of the Wnt/beta-catenin pathway above controls; cells positive for Oct3/4 ([3]; ES-D3, 0.5 μM): almost all cells were positive for Oct3/4; viability reduced by ([4]; ES-D3, 0.25 μM): 25.7%; viability reduced by ([4]; ES-D3, 0.5 μM): 58.7%; viability reduced by ([4]; ES-D3, 0.75 μM): 68.7%; T gene expression induction ([5]; ES-D3, 0.5 μM): up to 300 fold; activation of the Wnt/beta-catenin pathway (luminescence signal) ([6]; 0.5 μM): comparable to that of negative or positive controls; Brachyury-positive cells ([7]; ES-D3, 0.5 μM, three day treatment): almost no Brachyury-positive cells |
| Cc1c[nH]c(-c2cnc(NCCNc3ccc(C#N)cn3)nc2-c2ccc(Cl)cc2Cl)n1 [CHIR-99021] | smallest reduction of the viability |  |  | significant activation of the Wnt/beta-catenin pathway | 24.7 | 56.3 | 61.9 | 69.2 | 4900 | up to 2,500 fold | only a significant increase at 72 h | 60 | selectivity as GSK3 inhibitor [8]: most selective GSK3 inhibitor; Brachyury-positive cells [7, 9]: around 43%; EC50 ([7]; Mus musculus, 72 h): 3190 nM |
| Cn1cc(C2=C(c3ccc(Cl)cc3Cl)C(=O)NC2=O)c2ccccc21 [SB-216763] | smallest reduction of the viability | 1.7 |  | significantly increased compared to control cells but not to Wnt3a-incubated cells | 29.8 | 55.6 | 56.1 | 57.2 | 5700 | up to 300 fold | comparable to that of negative or positive controls |  | cells positive for Oct3/4 ([3]; ES-D3, 5 μM): all cells were positive for Oct3/4; cells double-positive for Brachyury and Oct3/4 [7, 9]: ~ 3% |
| CHIR-98014 |  | 52 | 1100 |  |  |  |  |  |  |  |  | 50 | activation of the Wnt/beta-catenin pathway (luminescence signal) ([1]; ES-D3, 1 μM): significant activation of the Wnt/beta-catenin pathway; T gene expression induction ([5]; ES-D3, 1 μM): up to 2,500 fold; activation of the Wnt/beta-catenin pathway (luminescence signal) ([6]; 1 μM): significant increase of Wnt-signaling after 48 and 72 h; Brachyury-positive cells ([7]; ES-D3, 1 μM, three day treatment): ~50%; EC50 ([7]; ES-D3, three day treatment, counting of stained cells): 320 nM |

— PMC4008422, “Cytotoxicity and activation of the Wnt/beta-catenin pathway in mouse embryonic stem cells treated with four GSK3 inhibitors” (BMC Research Notes, 2014)
